From patent US7943577B2, “Alpha-fetoprotein peptides and uses thereof” (Albany Medical College, priority 2001, dated 2011)

Tests used:
C6 glioma cells = assay: PCNA and nuclear ERα immunoblot, C6; type: cell-based, murine; set-up: key to Total Nuclear Estrogen Receptor / PCNA accumulation: “+” indicates increase; “−” indicates decrease; “NC” indicates no change
Procedure: (§1) Cell lines. Glioma cells: C6 cells were cultured in F-12K medium with 18% FBS. F98 cells and GL261 cells were cultured in DMEM with 10% FBS. Head and neck cancer: 22B cells were cultured in DMEM with 10% FBS. Papillary thyroid cancers: BHP2-7 cells and BHP18-21 cells were cultured in DMEM with 10% FBS. Small cell lung cancer: HTB184 cells were cultured in RPMI medium with 10% FBS. Breast cancers: MCF-7 cells were cultured in DMEM (w/o phenol red) with 5% FBS and MDA-MB cells were cultured in DMEM with 10% FBS. Colon cancer: Colo 205 cells were cultured in RPMI medium with 10% FBS. Ovarian cancer: OVCAR-3 cells were culture in RPMI medium with 20% FBS supplemented with insulin. Prostate cancers: LNCaP cells were cultured in RPMI medium with 10% FBS. DU145 cells were cultured in MEM with 10% FBS and PC3 cells were cultured in F-12 medium with 10% FBS. Cervical cancer: HeLa cells were cultured in MEM with 10% FBS. Melanoma cells were cultured in DMEM with 10% FBS. These conditions were determined to maintain cellular production of proliferating cell nuclear antigen (PCNA) at high levels immediately prior to study of AFP-related peptide. All cell cultures were maintained in a 5% CO2/95% O2 incubator at 37 C. Cell fractionation. Fractionation in a microfuge and preparation of nucleoproteins was by our previously reported methods (1-3). Nuclear extracts were prepared by resuspension of the crude nuclei in high salt buffer (hypotonic buffer with 420 mM NaCl and 20% glycerol) at 4° C. with rocking for 1 hr. The supernatants were collected after subsequent centrifugation at 4° C. and 13,000 rpm for 10 min. Immunoblotting. The techniques are standard and have been described in a number of our publications (1-3). In brief, nucleoproteins were separated on discontinuous SDS-PAGE and then transferred by electroblotting to nitocellulose membranes (Millipore, Bedford, Mass.). […] Immunoreactive proteins are detected by chemiluminescence.

F98 glioma cells = assay: PCNA and nuclear ERα immunoblot, F98; type: cell-based, murine; set-up: key to Total Nuclear Estrogen Receptor / PCNA accumulation: “+” indicates increase; “−” indicates decrease; “NC” indicates no change
Procedure: as §1

[1] = system: head and neck 22B cancer cells; assay: PCNA and nuclear ERα immunoblot, 22B; type: cell-based, human; set-up: key to Total Nuclear Estrogen Receptor / PCNA accumulation: “+” indicates increase; “−” indicates decrease; “NC” indicates no change
Procedure: as §1

[2] = system: BHP 2-7 papillary thyroid cancer cells; assay: PCNA and nuclear ERα immunoblot, BHP 2-7; type: cell-based; set-up: key to Total Nuclear Estrogen Receptor / PCNA accumulation: “+” indicates increase; “−” indicates decrease; “NC” indicates no change
Procedure: as §1

[3] = system: BHP 18-21 papillary thyroid cancer cells; assay: PCNA and nuclear ERα immunoblot, BHP 18-21; type: cell-based; set-up: key: “+” indicates increase; “−” indicates decrease; “NC” indicates no change
Procedure: as §1, with “(1-3).” for “(1-3). Nuclear extracts were prepared by resuspension of the crude nuclei in high salt buffer (hypotonic buffer with 420 mM NaCl and 20% glycerol) at 4° C. with rocking for 1 hr. The supernatants were collected after subsequent centrifugation at 4° C. and 13,000 rpm for 10 min. Immunoblotting. The techniques are standard and have been described in a number of our publications (1-3). In brief, nucleoproteins were separated on discontinuous SDS-PAGE and then transferred by electroblotting to nitocellulose membranes (Millipore, Bedford, Mass.).”

[4] = system: small cell lung cancer HTB 184 cells; assay: PCNA and nuclear ERα immunoblot, HTB 184; type: cell-based, human; set-up: key to Total Nuclear Estrogen Receptor / PCNA accumulation: “+” indicates increase; “−” indicates decrease; “NC” indicates no change
Procedure: as §1

[5] = system: MCF-7 breast cancer cells; assay: PCNA and nuclear ERα immunoblot, MCF-7; type: cell-based, human; set-up: key to Total Nuclear Estrogen Receptor / PCNA accumulation: “+” indicates increase; “−” indicates decrease; “NC” indicates no change
Procedure: as §1

[6] = system: MDA-MB breast cancer cells; assay: PCNA and nuclear ERα immunoblot, MDA-MB; type: cell-based, human; set-up: key to Total Nuclear Estrogen Receptor / PCNA accumulation: “+” indicates increase; “−” indicates decrease; “NC” indicates no change
Procedure: as §1

[7] = system: ovarian cancer OVCAR-3 cells; assay: PCNA and nuclear ERα immunoblot, OVCAR-3; type: cell-based; set-up: key to Total Nuclear Estrogen Receptor / PCNA accumulation: “+” indicates increase; “−” indicates decrease; “NC” indicates no change
Procedure: as §1

[8] = system: LNCaP prostate carcinoma cells; assay: PCNA and nuclear ERα immunoblot, LNCaP; type: cell-based, human; set-up: key to Total Nuclear Estrogen Receptor / PCNA accumulation: “+” indicates increase; “−” indicates decrease; “NC” indicates no change
Procedure: as §1

[9] = system: DU145 prostate carcinoma cells; assay: PCNA and nuclear ERα immunoblot, DU145; type: cell-based, human; set-up: key to Total Nuclear Estrogen Receptor / PCNA accumulation: “+” indicates increase; “−” indicates decrease; “NC” indicates no change
Procedure: as §1

[10] = system: HeLa cervical cancer cells; assay: PCNA and nuclear ERα immunoblot, HeLa; type: cell-based; set-up: key to Total Nuclear Estrogen Receptor / PCNA accumulation: “+” indicates increase; “−” indicates decrease; “NC” indicates no change
Procedure: as §1

melanoma cells = assay: PCNA and nuclear ERα immunoblot, melanoma; type: cell-based, human; set-up: key to Total Nuclear Estrogen Receptor / PCNA accumulation: “+” indicates increase; “−” indicates decrease; “NC” indicates no change
Procedure: Cell lines. Glioma cells: C6 cells were cultured in F-12K medium with 18% FBS. F98 cells and GL261 cells were cultured in DMEM with 10% FBS. Head and neck cancer: 22B cells were cultured in DMEM with 10% FBS. Papillary thyroid cancers: BHP2-7 cells and BHP18-21 cells were cultured in DMEM with 10% FBS. Small cell lung cancer: HTB184 cells were cultured in RPMI medium with 10% FBS. Breast cancers: MCF-7 cells were cultured in DMEM (w/o phenol red) with 5% FBS and MDA-MB cells were cultured in DMEM with 10% FBS. Colon cancer: Colo 205 cells were cultured in RPMI medium with 10% FBS. Ovarian cancer: OVCAR-3 cells were culture in RPMI medium with 20% FBS supplemented with insulin. Prostate cancers: LNCaP cells were cultured in RPMI medium with 10% FBS. DU145 cells were cultured in MEM with 10% FBS and PC3 cells were cultured in F-12 medium with 10% FBS. Cervical cancer: HeLa cells were cultured in MEM with 10% FBS. Melanoma cells were cultured in DMEM with 10% FBS. These conditions were determined to maintain cellular production of proliferating cell nuclear antigen (PCNA) at high levels immediately prior to study of AFP-related peptide. All cell cultures were maintained in a 5% CO2/95% O2 incubator at 37 C. Cell fractionation. Fractionation in a microfuge and preparation of nucleoproteins was by our previously reported methods (1-3). Nuclear extracts were prepared by resuspension of the crude nuclei in high salt buffer (hypotonic buffer with 420 mM NaCl and 20% glycerol) at 4° C. with rocking for 1 hr. The supernatants were collected after subsequent centrifugation at 4° C. and 13,000 rpm for 10 min. Immunoblotting. The techniques are standard and have been described in a number of our publications (1-3). In brief, nucleoproteins were separated on discontinuous SDS-PAGE and then transferred by electroblotting to nitocellulose membranes (Millipore, Bedford, Mass.). After blocking with 5% milk in Tris-buffered saline containing 0.1% Tween, the membranes were incubated with either mouse anti-human PCNA (Santa Cruz Biotech., Santa Cruz, Calif.) or mouse anti-human ER antibody (Santa Cruz) overnight. Secondary antibody was rabbit anti-mouse IgG (1:1000)(Dako), depending upon the origin of the primary antibody. Immunoreactive proteins are detected by chemiluminescence.

[11] = BHP 2-7 (Papillary Thyroid Cancer)
[12] = HTB 184 (Small Cell Lung Cancer)

C[C@]12CC[C@@H]3c4ccc(O)cc4CC[C@H]3[C@@H]1CC[C@@H]2O [E2, 17β-estradiol]
PCNA accumulation (C6 glioma cells; C6 (Glioma)): +
Total Nuclear Estrogen Receptor (C6 glioma cells; C6 (Glioma)): +
nuclear ERα (C6 glioma cells; C6, 10^−9 M E2 or 10^−6 M AFP-peptide, 24 h): increased nuclear accumulation of ERα
PCNA accumulation (F98 glioma cells; F98 (Glioma)): +
Total Nuclear Estrogen Receptor (F98 glioma cells; F98 (Glioma)): +
nuclear ERα (F98 glioma cells; F98, 10^−9 M E2 or 10^−6 M AFP-peptide, 24 h): increased nuclear accumulation of ERα
PCNA accumulation ([1]; 22B (Head Neck Cancer)): +
Total Nuclear Estrogen Receptor ([1]; 22B (Head Neck Cancer)): +
nuclear ERα ([1]; 22B, 10^−9M E2 or 10^−7 M AFP-peptide, 24 h): increased nuclear accumulation of ERα
PCNA accumulation [2, 11]: +
Total Nuclear Estrogen Receptor [2, 11]: +
nuclear ERα ([2]; BHP 2-7, 10^−9 M E2 or 10^−7 M AFP-peptide, 24 h): increased nuclear accumulation of ERα
PCNA accumulation [3]: +
Total Nuclear Estrogen Receptor [3]: +
PCNA accumulation [4, 12]: +
Total Nuclear Estrogen Receptor [4, 12]: +
nuclear ERα ([4]; HTB 184, 10^−9M E2 or 10^−6 M AFP-peptide, 24 h): increased nuclear ERα accumulation
PCNA accumulation ([5]; MCF-7 (Breast Cancer)): +
Total Nuclear Estrogen Receptor ([5]; MCF-7 (Breast Cancer)): +
nuclear accumulation of activated ER (phosphoERα) ([5]; MCF-7, 10^−9 M E2 or 10^−8 M AFP-peptide, 24 h): increased nuclear accumulation of activated ER (phosphoERα)
PCNA accumulation ([6]; MDA-MB (Breast Cancer)): NC
Total Nuclear Estrogen Receptor ([6]; MDA-MB (Breast Cancer)): NC
nuclear ER ([6]; MDA-MB, 10^−9 M E2 or 10^−6 M peptide, 24 h): no significant change in ER
PCNA accumulation ([7]; OVCAR-3 (Ovarian Cancer)): +
Total Nuclear Estrogen Receptor ([7]; OVCAR-3 (Ovarian Cancer)): NC
nuclear ERα ([7]; OVCAR-3, 10^−9 M E2 or 10^−7M AFP-peptide, 24 h): did not increase nuclear accumulation of ERα
PCNA accumulation ([8]; LNCaP (Prostate Cancer)): +
Total Nuclear Estrogen Receptor ([8]; LNCaP (Prostate Cancer)): NC
nuclear ERα ([8]; LNCaP, 10^−9 M E2 or 10^−6 M AFP-peptide, 24 h): did not increase nuclear accumulation of ERα
PCNA accumulation ([9]; DU 145 (Prostate Cancer)): −
Total Nuclear Estrogen Receptor ([9]; DU 145 (Prostate Cancer)): −
nuclear ERα ([9]; DU145, 10^−9 M E2 or 10^−6 M AFP-peptide, 24 h): did not increase nuclear accumulation of ERα
PCNA accumulation ([10]; HeLa (Cervical Cancer)): +
Total Nuclear Estrogen Receptor ([10]; HeLa (Cervical Cancer)): +
nuclear ERα ([10]; HeLa, 10^−9M E2 or 10^−7 M AFP-peptide, 24 h): Neither E2 or AFP-peptide decreased nuclear accumulation of ERα
PCNA accumulation (melanoma cells; Melanoma (Skin Cancer)): −
Total Nuclear Estrogen Receptor (melanoma cells; Melanoma (Skin Cancer)): −
nuclear ERα (melanoma cells; melanoma, 10^−9 M E2 or 10^−6M AFP-peptide, 24 h): decrease nuclear ERα accumulation
PCNA accumulation (melanoma cells; melanoma, AFP-peptide 10^−9 to 10^−7 M (left panel), 10^−9 M E2 or 10^−6M AFP-peptide (right panel), 24 h): reduce PCNA
